Laboratory results reported in US20220041647A1, “ESTRA-1,3,5(10)-TRIENE COMPOUNDS CONDENSED IN POSITION 16(17) WITH A PYRAZOLE RING AS INHIBITORS OF 17-HSD1” (FORENDO PHARMA LTD, priority 2018, published 2022).

What was measured:
[1] = target: T1, recombinant human 17β-HSD1 (Homo sapiens, UniProt P14061); test: Inhibition of recombinant human 17β-HSD1 (estrone to estradiol conversion, HPLC/radioactivity); assay type: biochemical; conditions: compound 100 nM; 30 nM estrone, 1 mM NADPH, 30 min RT
T1 construct: made in house; host or cells: Sd9 (Sf9) insect cells, baculovirus (Bac to Bac Expression System)
T1 sequence (P14061 1-328): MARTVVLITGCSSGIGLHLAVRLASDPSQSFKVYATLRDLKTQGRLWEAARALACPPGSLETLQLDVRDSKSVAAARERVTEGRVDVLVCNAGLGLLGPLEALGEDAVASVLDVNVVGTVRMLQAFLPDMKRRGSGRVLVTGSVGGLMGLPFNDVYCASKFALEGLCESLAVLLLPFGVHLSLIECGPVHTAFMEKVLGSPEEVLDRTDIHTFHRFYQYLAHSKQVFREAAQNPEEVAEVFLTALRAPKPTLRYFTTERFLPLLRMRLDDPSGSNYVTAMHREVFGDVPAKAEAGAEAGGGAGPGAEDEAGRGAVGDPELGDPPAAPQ
How it was run: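 Microsomal human 17β-HSD1 from Sf9 baculovirus (1 μg/ml) was incubated 30 min at RT in 20 mM KH2PO4 pH 7.4 with 30 nM ^3H-estrone, 1 mM NADPH and inhibitor at 1 μM or 0.1 μM (1% DMSO). Estrone and estradiol were separated by HPLC with radioactivity detection. % inhibition = 100 − % conversion relative to uninhibited control.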

[2] = target: T2, recombinant human 17β-HSD2 (Homo sapiens, UniProt P37059); test: Inhibition of recombinant human 17β-HSD2 (estradiol to estrone conversion, HPLC/radioactivity); assay type: biochemical; conditions: compound 1 μM; 50 nM estradiol, 1 mM NADH, 30 min RT
T2 construct: made in house; host or cells: Sd9 (Sf9) insect cells, baculovirus (Bac to Bac Expression System)
T2 sequence (P37059 1-387): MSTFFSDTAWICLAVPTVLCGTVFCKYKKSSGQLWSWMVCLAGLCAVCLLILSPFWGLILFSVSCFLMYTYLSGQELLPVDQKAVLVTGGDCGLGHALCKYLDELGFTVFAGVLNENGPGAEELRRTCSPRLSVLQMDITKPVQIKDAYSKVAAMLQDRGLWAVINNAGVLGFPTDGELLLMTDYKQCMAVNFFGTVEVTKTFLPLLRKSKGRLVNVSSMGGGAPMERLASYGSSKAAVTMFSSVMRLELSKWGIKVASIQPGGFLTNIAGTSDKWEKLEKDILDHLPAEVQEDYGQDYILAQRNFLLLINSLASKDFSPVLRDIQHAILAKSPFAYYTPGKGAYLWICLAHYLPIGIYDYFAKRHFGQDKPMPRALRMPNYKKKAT
How it was run: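 Membrane extract of Sf9 cells expressing recombinant human 17β-HSD2 (4 μg/ml), in 20 mM KH2PO4 pH 8.5 with 50 nM ^3H-spiked estradiol and 1 mM NADH, 30 min at RT, 1% DMSO. Compound at 1 μM or 0.1 μM; estrone formation by HPLC radioactivity, % inhibition relative to uninhibited conversion.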

[3] = Metabolic stability assay, human hepatocyte incubations; assay type: in vitro ADME; conditions: compound 1 μM, human hepatocytes, 0-60 min at 37° C.; read-out: Human hepatocytes MetStab T½ min
Procedure: Compound stock solutions of the invention were prepared in […]. Final concentration of DMSO was adjusted to 1% in all samples. The in vitro metabolic stability of the compounds of the invention was determined for exemplified compounds using human hepatocyte incubations; study compounds at concentration of 1 μM were incubated 0, 10, 20, 40 and 60 min at 37° C. Samples were collected at all time points and compounds were detected by LC-MS/MS analysis. The percent compound remaining is calculated by comparing the peak area of the parent compound at each time point to time zero. In vitro metabolic stability was determined as half life (T1/2), which was determined by regression analysis of the percent parent disappearance vs. time curve.

[4] = test system: HSD1 enzyme that is expressed in rabbit placenta tissue; test: Inhibition of E1 to E2 conversion in rabbit placenta tissue homogenate; assay type: biochemical; conditions: compound 100 nM, 30 nM estrone, 1 mM β-NADPH, 30 min
How it was run: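 Rabbit placenta homogenate (20 mM KH2PO4, 1 mM EDTA, pH 7.4) incubated 30 min with 1 mM β-NADPH, 30 nM estrone plus 5 nM [3H]-estrone tracer, and inhibitor at 1 μM or 0.1 μM (1% DMSO). Stopped with TCA; estrone and estradiol resolved by HPLC with scintillation counting; % inhibition = 100 − % conversion relative to uninhibited control.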

## C[C@]12CCC3c4cccc(F)c4CCC3C1[C@H](CCC(=O)NC1CCOCC1)c1c[nH]nc12 (stereo partly drawn) [Compound 45, 3-((8aS,12S)-3-fluoro-8a-methyl-1,2,6b,7,8,8a,10,12,12a,12b-decahydronaphtho[2′,1′:4,5]indeno[1,2-c]pyrazol-12-yl)-N-(tetrahydro-2H-pyran-4-yl)propanamide]
[1]
  inhibition at 0.1 µM: 90%
[2]
  inhibition at 1 µM: 3%
[3]
  half-life at 1 μM: 35 min

## C[C@]12CCC3c4ccccc4CCC3C1[C@H](CCC(=O)N1CCCC1)c1c[nH]nc12 (stereo partly drawn) [Compound 147, 3-((8aS,12S)-8a-methyl-1,2,6b,7,8,8a,10,12,12a,12b-decahydronaphtho[2′,1′:4,5]indeno[1,2-c]pyrazol-12-yl)-1-(pyrrolidin-1-yl)propan-1-one]
[1]
  inhibition at 0.1 µM: 86%
[2]
  inhibition at 1 µM: 11%
[3]
  half-life at 1 μM: 9 min

## Cc1ccc(NC(=O)CC[C@@H]2c3c[nH]nc3[C@@]3(C)CCC4c5ccccc5CCC4C23)nn1 (stereo partly drawn) [Compound 195, 3-((8aS,12S)-8a-methyl-1,2,6b,7,8,8a,10,12,12a,12b-decahydronaphtho[2′,1′:4,5]indeno[1,2-c]pyrazol-12-yl)-N-(6-methylpyridazin-3-yl)propanamide]
[4]
  Rabbit placenta inhibition % @100 nM: 61%
[1]
  inhibition at 0.1 µM: 70%
[2]
  inhibition at 1 µM: 10%

## CN1CCN(c2ccc(NC(=O)CC[C@@H]3c4c[nH]nc4[C@@]4(C)CCC5c6ccccc6CCC5C34)nc2)CC1 (stereo partly drawn) [Compound 198, 3-((8aS,12S)-8a-methyl-1,2,6b,7,8,8a,10,12,12a,12b-decahydronaphtho[2′,1′:4,5]indeno[1,2-c]pyrazol-12-yl)-N-(5-(4-methylpiperazin-1-yl)pyridin-2-yl)propanamide]
[4]
  Rabbit placenta inhibition % @100 nM: 77%
[1]
  inhibition at 0.1 µM: 88%
[2]
  inhibition at 1 µM: 18%

## CC(C)(C)NC(=O)CC[C@@H]1c2c[nH]nc2[C@@]2(C)CCC3c4ccccc4CCC3C12 (stereo partly drawn) [Compound 201, N-(tert-butyl)-3-((8aS,12S)-8a-methyl-1,2,6b,7,8,8a,10,12,12a,12b-decahydronaphtho[2′,1′:4,5]indeno[1,2-c]pyrazol-12-yl)propanamide]
[1]
  inhibition at 0.1 µM: 87%
[2]
  inhibition at 1 µM: 4%
[3]
  half-life at 1 μM: 13 min

## C[C@]12CCC3c4cccc(F)c4CCC3C1[C@H](CCC(=O)Nc1cccc(F)n1)c1c[nH]nc12 (stereo partly drawn) [Compound 204, 3-((8aS,12S)-3-fluoro-8a-methyl-1,2,6b,7,8,8a,10,12,12a,12b-decahydronaphtho[2′,1′:4,5]indeno[1,2-c]pyrazol-12-yl)-N-(6-fluoropyridin-2-yl)propanamide]
[4]
  Rabbit placenta inhibition % @100 nM: 63%
[1]
  inhibition at 0.1 µM: 96%
[2]
  inhibition at 1 µM: 1%

## CC(C)(C)c1cc(NC(=O)CC[C@@H]2c3c[nH]nc3[C@@]3(C)CCC4c5cccc(F)c5CCC4C23)no1 (stereo partly drawn) [Compound 213, N-(5-(tert-butyl)isoxazol-3-yl)-3-((8aS,12S)-3-fluoro-8a-methyl-1,2,6b,7,8,8a,10,12,12a,12b-decahydronaphtho[2′,1′:4,5]indeno[1,2-c]pyrazol-12-yl)propanamide]
[4]
  Rabbit placenta inhibition % @100 nM: 25%
[1]
  inhibition at 0.1 µM: 93%
[2]
  inhibition at 1 µM: 10%

## C[C@]12CCC3c4cccc(F)c4CCC3C1[C@H](CCC(=O)NC1CCOC1)c1c[nH]nc12 (stereo partly drawn) [Compound 225, 3-((8aS,12S)-3-fluoro-8a-methyl-1,2,6b,7,8,8a,10,12,12a,12b-decahydronaphtho[2′,1′:4,5]indeno[1,2-c]pyrazol-12-yl)-N-(tetrahydrofuran-3-yl)propanamide]
[4]
  Rabbit placenta inhibition % @100 nM: 10%
[1]
  inhibition at 0.1 µM: 88%
[2]
  inhibition at 1 µM: -2%

## Cc1ccc(NC(=O)CC[C@@H]2c3c[nH]nc3[C@@]3(C)CCC4c5cccc(F)c5CCC4C23)nn1 (stereo partly drawn) [Compound 228, 3-((8aS,12S)-3-fluoro-8a-methyl-1,2,6b,7,8,8a,10,12,12a,12b-decahydronaphtho[2′,1′:4,5]indeno[1,2-c]pyrazol-12-yl)-N-(6-methylpyridazin-3-yl)propanamide]
[4]
  Rabbit placenta inhibition % @100 nM: 67%
[1]
  inhibition at 0.1 µM: 87%
[2]
  inhibition at 1 µM: 3%

## C[C@]12CCC3c4cccc(F)c4CCC3C1[C@H](CCC(=O)N1CCOCC1)c1c[nH]nc12 (stereo partly drawn) [Compound 234, 3-((8aS,12S)-3-fluoro-8a-methyl-1,2,6b,7,8,8a,10,12,12a,12b-decahydronaphtho[2′,1′:4,5]indeno[1,2-c]pyrazol-12-yl)-1-morpholinopropan-1-one]
[1]
  inhibition at 0.1 µM: 85%
[2]
  inhibition at 1 µM: 0%
[3]
  half-life at 1 μM: 26 min

## C[C@]12CCC3c4cccc(F)c4CCC3C1[C@H](CCC(=O)Nc1cccnn1)c1c[nH]nc12 (stereo partly drawn) [Compound 237, 3-((8aS,12S)-3-fluoro-8a-methyl-1,2,6b,7,8,8a,10,12,12a,12b-decahydronaphtho[2′,1′:4,5]indeno[1,2-c]pyrazol-12-yl)-N-(pyridazin-3-yl)propanamide]
[4]
  Rabbit placenta inhibition % @100 nM: 58%
[1]
  inhibition at 0.1 µM: 84%
[2]
  inhibition at 1 µM: 1%

## C[C@]12CCC3c4cccc(F)c4CCC3C1[C@H](CCC(=O)Nc1cc(N3CCOCC3)ccn1)c1c[nH]nc12 (stereo partly drawn) [Compound 240, 3-((8aS,12S)-3-fluoro-8a-methyl-1,2,6b,7,8,8a,10,12,12a,12b-decahydronaphtho[2′,1′:4,5]indeno[1,2-c]pyrazol-12-yl)-N-(4-morpholinopyridin-2-yl)propanamide]
[4]
  Rabbit placenta inhibition % @100 nM: 35%
[1]
  inhibition at 0.1 µM: 84%
[2]
  inhibition at 1 µM: 2%

## Cc1cc(NC(=O)CC[C@@H]2c3c[nH]nc3[C@@]3(C)CCC4c5ccccc5CCC4C23)no1 (stereo partly drawn) [Compound 246, 3-((8aS,12S)-8a-methyl-1,2,6b,7,8,8a,10,12,12a,12b-decahydronaphtho[2′,1′:4,5]indeno[1,2-c]pyrazol-12-yl)-N-(5-methylisoxazol-3-yl)propanamide]
[4]
  Rabbit placenta inhibition % @100 nM: 19%
[1]
  inhibition at 0.1 µM: 80%
[2]
  inhibition at 1 µM: 15%

## C[C@]12CCC3c4ccccc4CCC3C1[C@H](CCC(=O)Nc1ccc(N3CCOCC3)cn1)c1c[nH]nc12 (stereo partly drawn) [Compound 252, 3-((8aS,12S)-8a-methyl-1,2,6b,7,8,8a,10,12,12a,12b-decahydronaphtho[2′,1′:4,5]indeno[1,2-c]pyrazol-12-yl)-N-(5-morpholinopyridin-2-yl)propanamide]
[4]
  Rabbit placenta inhibition % @100 nM: 46%
[1]
  inhibition at 0.1 µM: 90%
[2]
  inhibition at 1 µM: 7%

## C[C@]12CCC3c4ccccc4CCC3C1[C@H](CCC(=O)Nc1cccnn1)c1c[nH]nc12 (stereo partly drawn) [Compound 255, 3-((8aS,12S)-8a-methyl-1,2,6b,7,8,8a,10,12,12a,12b-decahydronaphtho[2′,1′:4,5]indeno[1,2-c]pyrazol-12-yl)-N-(pyridazin-3-yl)propanamide]
[4]
  Rabbit placenta inhibition % @100 nM: 46%
[1]
  inhibition at 0.1 µM: 66%
[2]
  inhibition at 1 µM: 0%

## C[C@]12CCC3c4ccccc4CCC3C1[C@H](CCC(=O)Nc1cccc(F)n1)c1c[nH]nc12 (stereo partly drawn) [Compound 258, N-(6-fluoropyridin-2-yl)-3-((8aS,12S)-8a-methyl-1,2,6b,7,8,8a,10,12,12a,12b-decahydronaphtho[2′,1′:4,5]indeno[1,2-c]pyrazol-12-yl)propanamide]
[4]
  Rabbit placenta inhibition % @100 nM: 43%
[1]
  inhibition at 0.1 µM: 90%
[2]
  inhibition at 1 µM: 2%
